Tests used:
recurring migraine = assay: Dorsonasal ropivacaine therapy in recurring migraine: frequency and severity of subsequent episodes (Example 3); type: in vivo, human
Text: The following studies relate to the methods of decreasing the frequency and severity of CNvD episodes described herein, and involved three patients.
A patient, herein designated “patient 3-1” was afflicted with recurring severe migraine, wherein acute migraine episodes were associated with nausea and visual changes. Patient 3-1 generally rated the severity of head pain associated with acute migraine episodes in the range from five to eight using the pain scale described herein. Patient 3-1 experienced, on average, about one acute migraine episode per week prior to beginning dorsonasal ropivacaine therapy. In addition, patient 3-1 also usually experienced about one severe acute migraine episode per month, associated with menses, wherein the severity of head pain was from eight to ten using the pain scale described herein.
Ropivacaine was dorsonasally administered to patient 3-1 using the cotton swab technique described herein. The patient has consistently experienced relief from all of the symptoms of their CNvD episodes within 3 to 5 minutes following administration of ropivacaine, regardless of whether the episodes are associated with menses.
A person, herein designated, “patient 3-2,” was afflicted with recurring migraines. […] Head pain associated with the patient's acute migraine episodes is typically preceded by visual changes which they describe as a curtain-like wave of scotomata moving from left to right until they are unable to see. The patient then becomes disoriented with respect to time and place and must sit or lay down. Following these prodromal symptoms, a severe headache, rated 10 on the pain scale described herein, begins and typically endures for 45 to 60 minutes. The patient remains completely debilitated for the duration of the headache, unable to move about or walk. As the headache subsides, the patient's vision returns, and the patient is left feeling exhausted, as if they had not slept the night before.
A person, herein designated, “patient 3-3,” experienced about 3 to 5 recurring migraine episodes per week prior to beginning dorsonasal ropivacaine therapy. The initial severity of these headaches was reported to be 10, using the pain scale described herein. When ropivacaine was administered, using the saturated swab method described herein, to patient 3-3 during a headache episode, the patient reported a decrease in head pain from a rating of 10 to a rating of 0 or 1 within 10 minutes following ropivacaine administration. Furthermore, after three months of dorsonasal ropivacaine treatment, patient 3-3 reported that the frequency of their headache episodes had decreased to about 1 to 2 times weekly and that the initial severity of their headaches was in the range from about 7 to about 8, rather than 10.

[1] = in vivo; cited from earlier work
nerve structure = details: in vivo; cited from earlier work
[2] = patient 3-1, about three or four months after initiation

Compound: CCCN1CCCC[C@H]1C(=O)Nc1c(C)cccc1C [Ropivacaine, ropivacaine]
- Frequency of subsequent acute migraine episodes (recurring migraine; [2]): decrease in the frequency with which acute migraine episodes not associated with menses occurred
- Initial severity of subsequent acute migraine episodes (recurring migraine; [2]): decrease in the initial severity of acute migraine episodes not associated with menses
- Frequency of headaches after therapy (recurring migraine; patient 3-2, after four to six months of therapy): approximately one headache every two months or longer
- Initial headache pain (prior to administration) after therapy (recurring migraine; patient 3-2, after four to six months of therapy, previously about 10): ≤ 2
- Time to complete resolution of headache (recurring migraine; patient 3-2, nasal spray): completely resolved by fifteen minutes
- Headache pain intensity after administration (recurring migraine; patient 3-2, nasal spray, from 10, within one to two minutes, pain scale 0-10): 2-3
- Cardiotoxicity [1]: this side effect is not exhibited
- Cardiovascular and central nervous system toxicity [1]: lower cardiovascular and central nervous system toxicity than bupivacaine
- Anesthetic effect of 0.75% (w/v) ropivacaine-HCl relative to lidocaine (nerve structure): approximately equivalent to that of 3% (w/v) lidocaine

— patent publication US9381349B2, “Apparatus for treating cerebral neurovascular disorders including headaches by neural stimulation” (priority 1997, dated 2016)
